Data published in ChEMBL document CHEMBL2417489, “A structure-activity relationship study of 1,2,4-triazolo[1,5-a][1,3,5]triazin-5,7-dione and its 5-thioxo analogues on anti-thymidine phosphorylase and associated anti-angiogenic activities” (Eur J Med Chem, 2013).
pIC50: −log10 of the molar value. Calls of active or inactive are those of the source. The rule behind the calls is not given here.

What was measured:
Thymidine phosphorylase = biological target: T1, Thymidine phosphorylase (Homo sapiens, UniProt P19971); experiment: Inhibition of human recombinant thymidine phosphorylase expressed in Escherichia coli using thymidine as substrate after 4 to 20 mins by spectrophotometry
T1 sequence (P19971 whole entry): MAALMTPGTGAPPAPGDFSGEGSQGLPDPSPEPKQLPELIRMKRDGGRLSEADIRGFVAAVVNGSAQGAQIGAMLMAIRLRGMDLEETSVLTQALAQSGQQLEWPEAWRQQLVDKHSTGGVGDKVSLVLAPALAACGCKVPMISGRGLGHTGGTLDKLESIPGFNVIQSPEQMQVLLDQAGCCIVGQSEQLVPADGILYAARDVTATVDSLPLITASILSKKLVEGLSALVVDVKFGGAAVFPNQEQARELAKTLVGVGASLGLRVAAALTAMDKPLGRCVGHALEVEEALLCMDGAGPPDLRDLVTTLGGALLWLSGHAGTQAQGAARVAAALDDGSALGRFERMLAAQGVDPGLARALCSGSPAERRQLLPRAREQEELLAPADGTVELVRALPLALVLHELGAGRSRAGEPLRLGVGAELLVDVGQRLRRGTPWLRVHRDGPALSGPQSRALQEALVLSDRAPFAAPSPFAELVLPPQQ

MDA-MB-231 [1] = conditions: Homo sapiens, 25 to 200 uM
Description: Antiangiogenic activity in human MDA-MB-231 cells assessed as inhibition of VEGF protein expression at 25 to 200 uM after 24 hrs by ELISA relative to vehicle-treated control

MDA-MB-231 [2] = conditions: Homo sapiens, 200 uM
Description: Antiangiogenic activity in human MDA-MB-231 cells assessed as inhibition of PMA-induced MMP-9 expression at 200 uM after 24 hrs by gelatine zymography relative to vehicle-treated control

MDA-MB-231 [3] = conditions: Homo sapiens, 100 to 200 uM
Description: Antiangiogenic activity in human MDA-MB-231 cells assessed as inhibition of PMA-induced MMP-9 expression at 100 to 200 uM after 24 hrs by densitometric analysis relative to vehicle-treated control

MDA-MB-231 [4] = conditions: Homo sapiens, 50 to 100 uM
Description: Antiangiogenic activity in human MDA-MB-231 cells assessed as inhibition of PMA-induced MMP-9 expression at 50 to 100 uM after 24 hrs by densitometric analysis relative to vehicle-treated control

pIC50 (Thymidine phosphorylase) | SMILES | inhibition (MDA-MB-231 [1]) | inhibition (MDA-MB-231 [2]) | inhibition (MDA-MB-231 [3]) | inhibition (MDA-MB-231 [4])
< 4.00 | O=c1[nH]c(=O)n2nc(Cc3ccccc3)nc2[nH]1 | – | – | – | –
– | Cc1cc(-c2nc3[nH]c(=S)[nH]c(=O)n3n2)ccc1Br | Active | Active | Active | –
– | O=c1[nH]c(=S)[nH]c2nc(Cc3ccc(Cl)c(Cl)c3)nn12 | Active | Active | – | inactive
< 4.00 | O=c1[nH]c(=O)n2nc(-c3ccccc3)nc2[nH]1 | – | – | – | –
– | O=c1[nH]c(=S)[nH]c2nc(-c3ccc(Cl)c(Cl)c3)nn12 | Active | Active | Active | –
